Measured values reported in ChEMBL document CHEMBL1201862, “PubChem BioAssay data set” (2004).
Activity calls are given as the source filed them.

Experiments:
[1] = target: Beta-2 adrenergic receptor (Homo sapiens, UniProt P07550); experiment: ADRB2 activation measured by internalization – cell-based, FAP fluorogen, flow cytometry, cherry pick 1, dose response (AID 588763); type: functional
Paired box protein Pax-8 = Paired box protein Pax-8 (Homo sapiens, UniProt Q06710); experiment: PAX8 transcriptional activity inhibition in RMG-I – RMG-I cells, luciferase, cherry-pick, dose response (AID 687027); type: functional, cell-based;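 also: luciferase reporter driven by Pax8 target thyroperoxidase promoter measured by SteadyGlo luminescence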
[2] = target: Glucose-6-phosphate 1-dehydrogenase (Homo sapiens, UniProt P11413); experiment: inhibition of Homo sapiens G6PD, dose series – biochemical, fluorescence, selectivity assay for P. falciparum G6PD inhibitor project, dose response (AID 504792); type: functional
Glucose-6-phosphate 1-dehydrogenase, sequence (P11413 whole entry): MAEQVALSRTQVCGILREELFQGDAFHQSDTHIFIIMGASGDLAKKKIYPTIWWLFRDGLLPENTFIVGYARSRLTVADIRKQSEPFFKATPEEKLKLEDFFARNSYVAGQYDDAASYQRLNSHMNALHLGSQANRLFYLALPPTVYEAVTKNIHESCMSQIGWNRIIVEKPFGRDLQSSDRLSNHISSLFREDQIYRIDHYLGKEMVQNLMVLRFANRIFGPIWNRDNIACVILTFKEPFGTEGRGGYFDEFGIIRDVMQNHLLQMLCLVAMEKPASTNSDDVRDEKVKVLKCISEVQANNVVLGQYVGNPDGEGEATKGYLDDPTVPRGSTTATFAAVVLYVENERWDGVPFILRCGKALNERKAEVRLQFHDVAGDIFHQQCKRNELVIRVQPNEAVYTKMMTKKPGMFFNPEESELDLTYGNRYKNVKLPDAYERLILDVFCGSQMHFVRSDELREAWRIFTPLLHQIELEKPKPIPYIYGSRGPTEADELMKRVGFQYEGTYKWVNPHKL

Cytochrome P450 2C19 = Cytochrome P450 2C19 (Homo sapiens, UniProt P33261); experiment: Cytochrome panel assay with activity outcomes. Panel member name: p450-cyp2c19 Compounds with AC50 equal or less than 10 uM are considered active; type: functional
Cytochrome P450 2C19, sequence (P33261 whole entry): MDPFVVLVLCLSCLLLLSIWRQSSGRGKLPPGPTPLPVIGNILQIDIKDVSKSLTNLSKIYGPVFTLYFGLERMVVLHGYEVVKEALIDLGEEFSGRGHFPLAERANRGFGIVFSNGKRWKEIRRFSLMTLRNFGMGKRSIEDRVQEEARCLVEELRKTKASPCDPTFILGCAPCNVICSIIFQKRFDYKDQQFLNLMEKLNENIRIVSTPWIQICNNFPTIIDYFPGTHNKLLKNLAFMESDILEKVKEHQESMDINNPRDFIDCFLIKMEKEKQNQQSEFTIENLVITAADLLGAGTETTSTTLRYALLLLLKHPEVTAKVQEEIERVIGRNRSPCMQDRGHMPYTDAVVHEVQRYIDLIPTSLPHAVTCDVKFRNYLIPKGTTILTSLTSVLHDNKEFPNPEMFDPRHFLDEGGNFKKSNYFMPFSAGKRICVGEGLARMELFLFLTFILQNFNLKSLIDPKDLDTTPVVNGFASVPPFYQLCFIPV

Cytochrome P450 2D6 = Cytochrome P450 2D6 (Homo sapiens, UniProt P10635);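 also: CYP2D6 member of a cytochrome P450 panel assay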
Cytochrome P450 2D6, sequence (P10635 whole entry): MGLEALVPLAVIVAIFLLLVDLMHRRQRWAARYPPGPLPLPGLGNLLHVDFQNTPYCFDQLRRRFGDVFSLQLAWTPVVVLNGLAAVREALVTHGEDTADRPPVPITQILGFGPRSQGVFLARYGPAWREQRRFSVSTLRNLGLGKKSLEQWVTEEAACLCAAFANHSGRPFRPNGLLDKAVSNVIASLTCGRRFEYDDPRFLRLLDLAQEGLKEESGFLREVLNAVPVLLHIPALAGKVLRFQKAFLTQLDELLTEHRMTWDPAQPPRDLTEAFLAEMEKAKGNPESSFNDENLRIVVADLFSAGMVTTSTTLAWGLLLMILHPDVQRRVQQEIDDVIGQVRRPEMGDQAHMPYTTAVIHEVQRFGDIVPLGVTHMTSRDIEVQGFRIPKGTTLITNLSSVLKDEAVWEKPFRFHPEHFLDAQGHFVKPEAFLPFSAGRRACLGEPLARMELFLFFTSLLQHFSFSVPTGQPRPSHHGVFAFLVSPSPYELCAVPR

[3] = target: Ras and Rab interactor 1/Tyrosine-protein kinase ABL1 (Homo sapiens, UniProt P00519+Q13671); type: functional;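 also: biochemical TR-FRET dose-response test measuring inhibition of binding between Rin1 and Abl proteins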
Ras and Rab interactor 1/Tyrosine-protein kinase ABL1, sequence (P00519 whole entry): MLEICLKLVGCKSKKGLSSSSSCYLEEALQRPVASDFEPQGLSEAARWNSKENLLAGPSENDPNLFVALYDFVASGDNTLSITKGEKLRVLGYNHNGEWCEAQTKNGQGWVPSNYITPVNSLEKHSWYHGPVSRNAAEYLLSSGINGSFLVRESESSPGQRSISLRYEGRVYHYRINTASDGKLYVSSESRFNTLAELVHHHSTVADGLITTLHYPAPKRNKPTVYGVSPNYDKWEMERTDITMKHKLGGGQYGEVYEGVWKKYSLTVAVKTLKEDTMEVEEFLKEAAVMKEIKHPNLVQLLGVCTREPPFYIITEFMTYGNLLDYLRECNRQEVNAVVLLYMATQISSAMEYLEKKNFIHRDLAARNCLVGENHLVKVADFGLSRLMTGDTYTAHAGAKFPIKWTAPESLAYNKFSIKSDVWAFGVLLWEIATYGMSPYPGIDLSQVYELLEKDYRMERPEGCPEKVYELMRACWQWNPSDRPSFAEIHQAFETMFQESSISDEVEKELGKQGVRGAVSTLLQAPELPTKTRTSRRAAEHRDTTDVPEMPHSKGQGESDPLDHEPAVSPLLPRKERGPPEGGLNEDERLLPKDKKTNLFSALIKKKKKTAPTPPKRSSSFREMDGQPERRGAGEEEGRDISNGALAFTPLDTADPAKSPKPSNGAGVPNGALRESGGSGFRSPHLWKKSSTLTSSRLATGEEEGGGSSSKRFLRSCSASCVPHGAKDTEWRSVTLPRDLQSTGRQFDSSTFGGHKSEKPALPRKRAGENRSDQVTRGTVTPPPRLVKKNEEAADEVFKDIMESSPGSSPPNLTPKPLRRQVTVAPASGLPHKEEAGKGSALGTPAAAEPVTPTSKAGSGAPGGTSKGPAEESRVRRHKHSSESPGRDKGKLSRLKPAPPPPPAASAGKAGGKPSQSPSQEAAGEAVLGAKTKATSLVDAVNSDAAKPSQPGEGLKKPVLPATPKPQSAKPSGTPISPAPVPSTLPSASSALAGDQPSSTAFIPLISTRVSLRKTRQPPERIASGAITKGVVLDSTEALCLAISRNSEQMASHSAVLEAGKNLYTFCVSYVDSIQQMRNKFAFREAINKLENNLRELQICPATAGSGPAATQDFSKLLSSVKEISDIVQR
Ras and Rab interactor 1/Tyrosine-protein kinase ABL1, sequence (Q13671 whole entry): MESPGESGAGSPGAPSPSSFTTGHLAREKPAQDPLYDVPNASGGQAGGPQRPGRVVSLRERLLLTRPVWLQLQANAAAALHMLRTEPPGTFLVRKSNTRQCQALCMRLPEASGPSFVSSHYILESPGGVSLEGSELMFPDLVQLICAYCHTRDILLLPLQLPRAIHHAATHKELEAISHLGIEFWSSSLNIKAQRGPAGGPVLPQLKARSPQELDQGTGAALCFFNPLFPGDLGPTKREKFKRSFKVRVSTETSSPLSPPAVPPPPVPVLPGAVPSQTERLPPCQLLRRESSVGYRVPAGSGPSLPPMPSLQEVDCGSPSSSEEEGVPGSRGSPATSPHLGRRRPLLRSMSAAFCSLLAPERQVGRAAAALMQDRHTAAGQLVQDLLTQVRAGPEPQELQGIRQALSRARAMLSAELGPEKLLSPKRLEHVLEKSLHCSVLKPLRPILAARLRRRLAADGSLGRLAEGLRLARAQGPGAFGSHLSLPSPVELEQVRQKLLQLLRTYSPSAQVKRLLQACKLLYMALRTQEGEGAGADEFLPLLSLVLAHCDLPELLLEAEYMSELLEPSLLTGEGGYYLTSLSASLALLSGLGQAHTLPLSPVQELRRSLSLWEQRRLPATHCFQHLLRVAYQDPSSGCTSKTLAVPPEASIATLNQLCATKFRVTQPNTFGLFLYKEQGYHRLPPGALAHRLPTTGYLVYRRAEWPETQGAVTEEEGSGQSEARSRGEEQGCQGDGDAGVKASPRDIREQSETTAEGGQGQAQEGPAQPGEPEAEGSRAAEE

[4] = target: T1, Endoribonuclease toxin MazF (Escherichia coli K-12, UniProt P0AE70); experiment: substrate-only fluorescence increase artefacts – biochemical, single-stranded RNase substrate, counter-screen for MazEF activator project, dose response (AID 588502); type: functional
T1 sequence (P0AE70 whole entry): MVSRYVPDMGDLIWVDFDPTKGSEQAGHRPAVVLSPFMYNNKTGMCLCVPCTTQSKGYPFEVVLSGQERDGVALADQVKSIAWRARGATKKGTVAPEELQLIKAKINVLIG

Cytochrome P450 3A4 = Cytochrome P450 3A4 (Homo sapiens, UniProt P08684);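 also: CYP3A4 tested as one member of a cytochrome P450 panel screen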
[5] = target: T2, RNA-binding protein pos-1 (Caenorhabditis elegans, UniProt G5EF15); experiment: disruptors of C. elegans POS-1 RNA interaction – biochemical, fluorescence polarization, dose response (AID 1964);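 also: purified POS-1 fused to maltose binding protein made in E. coli; potency of compounds blocking POS-1 binding to fluorescent RNA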
T2 sequence (G5EF15 whole entry): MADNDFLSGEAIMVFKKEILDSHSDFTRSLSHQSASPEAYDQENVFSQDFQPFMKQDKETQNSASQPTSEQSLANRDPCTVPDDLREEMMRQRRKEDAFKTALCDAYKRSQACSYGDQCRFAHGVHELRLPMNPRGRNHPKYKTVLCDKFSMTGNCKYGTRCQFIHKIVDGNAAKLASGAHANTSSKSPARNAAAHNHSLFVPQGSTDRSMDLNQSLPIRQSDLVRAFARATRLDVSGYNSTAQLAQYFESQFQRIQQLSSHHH

[6] = target: T3, Zinc finger protein mex-5 (Caenorhabditis elegans, UniProt Q9XUB2); experiment: potency of MEX-5 RNA-binding blockers – biochemical, C. elegans, fluorescence polarization, dose response (AID 1960)
T3 sequence (Q9XUB2 whole entry): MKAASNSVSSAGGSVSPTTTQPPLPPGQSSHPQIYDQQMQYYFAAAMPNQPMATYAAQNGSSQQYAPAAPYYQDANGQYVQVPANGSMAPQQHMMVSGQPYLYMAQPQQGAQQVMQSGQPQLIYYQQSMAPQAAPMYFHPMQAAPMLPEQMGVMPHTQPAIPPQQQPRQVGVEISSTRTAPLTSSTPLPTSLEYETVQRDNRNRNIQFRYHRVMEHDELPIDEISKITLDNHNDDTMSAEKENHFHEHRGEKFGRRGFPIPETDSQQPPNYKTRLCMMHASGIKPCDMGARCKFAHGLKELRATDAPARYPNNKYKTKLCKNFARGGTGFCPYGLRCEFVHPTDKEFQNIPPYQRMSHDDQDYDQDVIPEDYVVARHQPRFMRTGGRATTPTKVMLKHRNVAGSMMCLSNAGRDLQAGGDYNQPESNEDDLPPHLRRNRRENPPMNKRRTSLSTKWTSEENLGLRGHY

Cytochrome P450 2C9 = Cytochrome P450 2C9 (Homo sapiens, UniProt P11712)
Cytochrome P450 2C9, sequence (P11712 whole entry): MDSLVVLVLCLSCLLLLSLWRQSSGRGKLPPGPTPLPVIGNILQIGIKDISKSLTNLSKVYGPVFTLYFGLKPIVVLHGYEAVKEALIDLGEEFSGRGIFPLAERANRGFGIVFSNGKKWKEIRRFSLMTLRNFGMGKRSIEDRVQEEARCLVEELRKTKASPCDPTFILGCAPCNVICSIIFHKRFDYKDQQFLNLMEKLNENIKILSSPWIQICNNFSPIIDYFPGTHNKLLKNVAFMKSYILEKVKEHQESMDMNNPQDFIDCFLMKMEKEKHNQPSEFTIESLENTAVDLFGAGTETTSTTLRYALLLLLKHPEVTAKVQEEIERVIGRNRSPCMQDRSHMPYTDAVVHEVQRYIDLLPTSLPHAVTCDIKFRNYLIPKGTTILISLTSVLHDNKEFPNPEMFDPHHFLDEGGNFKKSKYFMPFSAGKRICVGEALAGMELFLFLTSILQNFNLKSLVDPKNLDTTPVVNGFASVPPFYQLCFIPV

[7] = target: T4, Corticotropin-releasing factor receptor 2/Corticotropin-releasing factor-binding protein (Homo sapiens, UniProt P24387+Q13324); experiment: activators of CRF receptor 2 with binding protein – uHTS hits, confirmation (AID 602473); type: functional; settings: read-out: EC50_Mean
T4 sequence (Q13324 whole entry): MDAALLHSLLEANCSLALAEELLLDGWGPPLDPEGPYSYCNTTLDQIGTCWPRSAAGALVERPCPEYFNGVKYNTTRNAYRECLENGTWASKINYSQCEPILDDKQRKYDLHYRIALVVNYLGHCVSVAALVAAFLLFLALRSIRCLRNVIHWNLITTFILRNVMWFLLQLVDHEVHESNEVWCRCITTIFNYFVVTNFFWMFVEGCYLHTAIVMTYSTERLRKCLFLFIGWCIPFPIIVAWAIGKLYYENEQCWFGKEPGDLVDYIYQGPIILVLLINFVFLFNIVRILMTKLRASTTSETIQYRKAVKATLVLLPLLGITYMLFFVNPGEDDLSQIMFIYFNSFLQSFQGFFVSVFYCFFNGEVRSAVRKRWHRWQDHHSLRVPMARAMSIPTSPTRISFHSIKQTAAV
T4 sequence (P24387 whole entry): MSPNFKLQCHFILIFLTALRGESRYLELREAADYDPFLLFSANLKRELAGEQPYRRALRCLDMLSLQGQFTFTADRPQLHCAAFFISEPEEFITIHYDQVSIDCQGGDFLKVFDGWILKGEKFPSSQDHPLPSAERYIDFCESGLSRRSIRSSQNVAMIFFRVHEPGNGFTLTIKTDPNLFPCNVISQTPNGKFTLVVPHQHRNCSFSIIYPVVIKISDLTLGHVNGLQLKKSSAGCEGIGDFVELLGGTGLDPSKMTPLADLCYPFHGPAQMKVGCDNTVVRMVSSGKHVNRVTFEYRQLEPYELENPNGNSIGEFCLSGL

[8] = target: T1, Endoribonuclease toxin MazF; experiment: activation of MazEF endoribonuclease cleavage – biochemical, fluorescence, single-stranded RNA substrate, uHTS hits, dose response (AID 588481); type: functional
HEK293 [9] = experiment: NOD2 signaling inhibitors in MDP-stimulated cells, cell-based, uHTS, luminescence (AID 2001); type: functional; settings: Homo sapiens
[10] = target: Nucleotide-binding oligomerization domain-containing protein 2 (Homo sapiens, UniProt Q9HC29); experiment: inhibition of NOD2-driven NF-kB reporter – cell-based, luminescence, uHTS, HEK293 (AID 1566); type: functional
[11] = NIH3T3 cell viability loss – ATP luminescence, mouse fibroblasts, counter-screen, dose response (AID 2010); type: functional, cell-based;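 also: cells exposed to compound for about 90 hours before reading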
HEK293 [12] = experiment: cells; type: functional, cell-based; settings: Homo sapiens
[13] = Trypanosoma cruzi growth suppression in host cells – NIH3T3 host cells, beta-gal luminescence, confirmation (AID 2044); type: functional, cell-based;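 also: intracellular parasites grown in NIH/3T3 mouse fibroblasts as host cells; luminescent beta-galactosidase reporter signal from transgenic T. cruzi replicating inside host cells; inhibitors lower the luminescence signal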
HEK293 [14] = experiment: cells; type: functional, cell-based; settings: Homo sapiens; remark: listed apart in the source
HEK293 [15] = experiment: cells; type: functional, cell-based; settings: Homo sapiens; remark: listed apart in the source
HEK293 [16] = experiment: inhibition of NOD1-driven NF-kB reporter – cell-based, luminescence, uHTS, primary screen (AID 1578); type: functional; settings: Homo sapiens
Genome polyprotein = Genome polyprotein (dengue virus type 2, UniProt P29990); experiment: flavivirus cap methylation enzyme inhibition – biochemical, confirmation dose response, primary screen (AID 588689); type: functional
Genome polyprotein, sequence (P29990 2492-3391 limits assumed): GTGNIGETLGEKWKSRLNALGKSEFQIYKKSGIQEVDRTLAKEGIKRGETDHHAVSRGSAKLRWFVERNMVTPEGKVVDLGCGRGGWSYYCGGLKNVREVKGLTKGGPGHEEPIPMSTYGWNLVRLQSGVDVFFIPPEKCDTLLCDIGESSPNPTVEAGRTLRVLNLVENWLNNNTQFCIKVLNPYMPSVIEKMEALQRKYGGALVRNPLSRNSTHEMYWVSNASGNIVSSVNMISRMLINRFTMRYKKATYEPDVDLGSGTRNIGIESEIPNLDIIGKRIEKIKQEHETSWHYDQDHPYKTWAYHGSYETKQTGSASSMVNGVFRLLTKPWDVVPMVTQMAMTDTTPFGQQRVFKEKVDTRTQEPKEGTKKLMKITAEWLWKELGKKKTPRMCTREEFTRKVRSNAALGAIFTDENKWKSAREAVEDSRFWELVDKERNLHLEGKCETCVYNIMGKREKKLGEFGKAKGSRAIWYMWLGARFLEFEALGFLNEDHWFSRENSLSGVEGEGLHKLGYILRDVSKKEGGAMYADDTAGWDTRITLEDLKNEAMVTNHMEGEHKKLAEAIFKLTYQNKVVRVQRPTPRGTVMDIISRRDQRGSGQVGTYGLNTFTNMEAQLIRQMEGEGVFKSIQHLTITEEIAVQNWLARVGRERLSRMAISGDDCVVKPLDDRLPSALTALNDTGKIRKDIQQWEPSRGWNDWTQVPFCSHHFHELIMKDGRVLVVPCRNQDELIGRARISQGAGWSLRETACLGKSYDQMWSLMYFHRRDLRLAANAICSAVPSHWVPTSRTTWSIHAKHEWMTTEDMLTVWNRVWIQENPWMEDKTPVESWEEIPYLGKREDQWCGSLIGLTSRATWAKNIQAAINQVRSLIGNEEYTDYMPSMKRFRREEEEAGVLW

Fatty acid synthase [17] = target: T5, Fatty acid synthase (Homo sapiens, UniProt P49327); experiment: inhibition of human FAS-TE enzyme activity – biochemical, kinetic fluorescence intensity, dose response (AID 624326); type: functional;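 also: rate of fluorescence rise from hydrolysis of a fluorogenic O-methyl fluorescein ester substrate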
[18] = inhibition of ARNT PAS-B/TACC3 complex formation – biochemical, AlphaScreen, cherry-picked samples, confirmation (AID 651703); type: functional, Homo sapiens;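 also: His-tagged ARNT PAS-B domain paired with GST-TACC3 E629A dimer coactivator fragment; potency of inhibitors that break up the complex and lower AlphaScreen signal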
Fatty acid synthase [19] = target: T5, Fatty acid synthase; experiment: inhibition of human FAS-TE enzyme activity – biochemical, endpoint fluorescence intensity, uHTS hits, dose response (AID 624327); type: functional;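 also: fluorescence from hydrolysis of an O-methyl fluorescein acyl ester substrate by the enzyme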

N#Cc1cc(-c2ccccc2)nnc1Oc1ccccc1Cl
EC50 [1]: 0.173 µM (active)

COCCc1ncc(CN2CCC(C(=O)Nc3ccc(-n4cccn4)cc3)CC2)cn1
EC50 [1]: 1.29 µM (active)

CCc1cc(-c2n[nH]c(C)c2-c2nc3ccccc3n2C)c(O)cc1O
AC50 (Paired box protein Pax-8): 40.6 µM (active)
IC50 [2]: > 80 µM (inactive)

Cc1cc(C)n(-c2nc3c(c(=O)[nH]c(=O)n3C)n2CC(C)C)n1
AC50 (Cytochrome P450 2C19): inconclusive
AC50 (Cytochrome P450 2D6): inconclusive

CCOC(=O)CCCCCC(=O)Nc1ccc2c(c1)C(=O)N([C@H](C)CO)C[C@H](C)[C@@H](CN(C)C(=O)Nc1ccccc1)OCCCC[C@@H](C)O2
IC50 [3]: 30.8 µM (inactive)

CC(=O)c1cc(NC(=O)c2cccc(C(F)(F)F)c2)c(=O)oc1/C=C/N(C)C
EC50 [4]: 22.2 µM (inactive)
AC50 (Cytochrome P450 3A4): 6.31 µM (inconclusive)
EC50 [5]: > 300 µM (not active)
EC50 [6]: > 300 µM (inconclusive)
AC50 (Cytochrome P450 2C9): inconclusive
EC50 [7]: 5.91 µM (active)
EC50 [8]: > 99 µM (inactive)

CCC1(CC)C(=O)C2=C3C1[C@H](C(=O)OC)C=C(C(=O)OC)C[C@H]3n1c(=O)n(-c3ccccc3)c(=O)n1[C@H]2C (some centres undefined)
IC50 [3]: 22.4 µM (inactive)

COC(=O)C/C=C\[C@@H](C)[C@@H](/C=N\OC[C@@H](O)COCc1ccco1)NS(=O)(=O)c1ccc(C)cc1
AC50 (Cytochrome P450 2D6): inconclusive

CC[C@]1(O)C[C@H]2CN(CCc3c([nH]c4ccccc34)[C@](C(=O)OC)(c3cc4c(cc3OC)N(C=O)[C@H]3[C@@](O)(C(=O)OC)[C@H](OC(C)=O)[C@@]5(CC)C=CCN6CC[C@]43[C@H]65)C2)C1
AC50 (Cytochrome P450 2D6): inconclusive

C/C(Cn1nnc([N+](=O)[O-])n1)=N\NC(=O)c1ccc(Cl)c(Cl)c1
IC50 (HEK293 [9]): > 20 µM (inactive)
EC50 [10]: 4.92 µM (active)
EC50 [11]: > 60 µM (not active)
IC50 (HEK293 [12]): 18.5 µM (active)
EC50 [13]: 0.184 µM (active)
IC50 [2]: > 80 µM (inactive)
IC50 (HEK293 [14]): > 20 µM (inactive)
IC50 (HEK293 [15]): > 20 µM (inactive)
EC50 (HEK293 [16]): > 20 µM (inactive)

O=C(O)COc1ccccc1/C=C1\C(=O)NC(=O)N(CCC2=CCCCC2)C1=O
IC50 (Genome polyprotein): > 100 µM (active)

CCOC(=O)CN1C(=O)NC2NC(=O)NC21 (centres undefined)
IC50 [3]: 23.8 µM (inactive)

COc1ccc([N+](=O)[O-])cc1/C=N/NC(=O)CNC(=O)c1cccc(F)c1
IC50 (Fatty acid synthase [17]): 6.76 µM (active)
AC50 [18]: 87.2 µM (active)
IC50 (Fatty acid synthase [19]): 10.3 µM (active)

Cc1cc(C)cc(NC(S)=NC2CC3CCC(C2)N3Cc2ccco2)c1 (centres undefined)
AC50 (Cytochrome P450 2C19; read-out: AC50): 35.5 µM (inconclusive)
AC50 (Cytochrome P450 2C9): inconclusive

COC(=O)C/C=C\[C@@H](C)[C@@H](/C=N\OC[C@@H](O)[C@H]1O[C@H]2OC(C)(C)O[C@H]2[C@@H]1O)OC
AC50 (Cytochrome P450 3A4): 5.01 µM (inconclusive)
AC50 (Cytochrome P450 2D6): inconclusive

CC1CCc2[nH]c3ccc(C(=O)N(C)CC(=O)Nc4ccccc4C(F)(F)F)cc3c2C1 (centres undefined)
IC50 [2]: > 80 µM (inactive)

COc1ccc(-c2cc(-c3ccc(Cl)cc3)c(C#N)c(SCC(=O)O)n2)cc1
IC50 (Genome polyprotein): 50 µM (active)

Cc1ccc2nc(SCC(=O)N/N=C/c3ccco3)cc(C)c2c1
IC50 [2]: 41.8 µM (inactive)

O=C(NCCCn1ccnc1)C(=O)NCC(c1ccco1)N1CCN(c2ccc(F)cc2)CC1 (centres undefined)
AC50 [18]: 99.3 µM (active)
